# Target: MCL-1 (Homo sapiens, UniProt Q07820)
# Experiment: FP
# Type: binding
# Details: not given
# Chain of MCL-1 (Q07820 whole entry): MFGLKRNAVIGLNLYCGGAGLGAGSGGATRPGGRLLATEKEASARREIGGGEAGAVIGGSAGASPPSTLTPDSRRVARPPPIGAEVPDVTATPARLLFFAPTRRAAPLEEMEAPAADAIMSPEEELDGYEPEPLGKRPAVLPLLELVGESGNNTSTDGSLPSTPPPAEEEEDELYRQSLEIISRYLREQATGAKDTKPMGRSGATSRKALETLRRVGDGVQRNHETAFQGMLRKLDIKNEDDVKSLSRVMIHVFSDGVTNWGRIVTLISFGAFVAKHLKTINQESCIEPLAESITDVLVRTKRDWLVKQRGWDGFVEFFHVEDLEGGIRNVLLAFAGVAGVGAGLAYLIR
row,SMILES,FP MCL-1 Ki
1,"CCc1c(-c2cccc(Cl)c2C)c2c(N[C@H](Cc3ccccc3)C(=O)O)ncnc2n1CCC1CCCC1 (single isomer, unassigned) [Compound 9b, N-[(5Sa)-5-(3-Chloro-2-methylphenyl)-7-(2-cyclopentylethyl)-6-ethyl-7H-pyrrolo[2,3-d]pyrimidin-4-yl]-D-phenylalanine]",submicromolar

# Same assay, conditions: @50 μM, highest tested dose
row,SMILES,FP MCL-1 inhibition at 50 μM [%@50 μM]
1,"CCc1c(-c2cccc(Cl)c2C)c2c(N[C@H](Cc3ccccc3)C(=O)O)ncnc2n1C(C)C [Compound 6b, N-[(5Sa)-5-(3-Chloro-2-methylphenyl)-6-ethyl-7-(propan-2-yl)-7H-pyrrolo[2,3-d]pyrimidin-4-yl]-D-phenylalanine]",78

# Same assay, conditions: FP MCL-1 Ki
row,Ki [µM],SMILES
1,8.5,"CCc1c(-c2cccc(Cl)c2C)c2c(N[C@H](Cc3ccccc3)C(=O)O)ncnc2n1CC(F)(F)F (single isomer, unassigned) [Compound 5b, N-[(5Sa)-5-(3-Chloro-2-methylphenyl)-6-ethyl-7-(2,2,2-trifluoroethyl)-7H-pyrrolo[2,3-d]pyrimidin-4-yl]-D-phenylalanine]"
2,9.1,"C=CCn1c(CC)c(-c2cccc(Cl)c2C)c2c(N[C@H](Cc3ccccc3)C(=O)O)ncnc21 (single isomer, unassigned) [Compound 3b, N-[(5Sa)-5-(3-Chloro-2-methylphenyl)-6-ethyl-7-(prop-2-en-1-yl)-7H-pyrrolo[2,3-d]pyrimidin-4-yl]-D-phenylalanine]"
3,3.5,"CCc1c(-c2cccc(Cl)c2C)c2c(N[C@H](Cc3ccccc3)C(=O)O)ncnc2n1Cc1cccc2ccccc12 (single isomer, unassigned) [Compound 10a, N-[(5Ra)-5-(3-Chloro-2-methylphenyl)-6-ethyl-7-(naphthalen-1-ylmethyl)-7H-pyrrolo[2,3-d]pyrimidin-4-yl]-D-Phenylalanine]"
4,5.9,"Cc1c(Cl)cccc1-c1c2n(c3ncnc(N[C@H](Cc4ccccc4)C(=O)O)c13)CCCC2 (single isomer, unassigned) [Compound 12b, N-[(5Sa)-5-(3-Chloro-2-methylphenyl)-6,7,8,9-tetrahydropyrimido[5,4-b]indolizin-4-yl]-D-phenylalanine]"
5,0.26,"CCc1c(-c2cccc(Cl)c2C)c2c(N[C@H](Cc3ccccc3)C(=O)O)ncnc2n1Cc1cccc2ccccc12 (single isomer, unassigned) [Compound 10b, N-[(5Sa)-5-(3-Chloro-2-methylphenyl)-6-ethyl-7-(naphthalen-1-ylmethyl)-7H-pyrrolo[2,3-d]pyrimidin-4-yl]-D-phenylalanine]"
6,2.5,"C=CCn1c(Br)c(-c2cccc(Cl)c2C)c2c(N[C@H](Cc3ccccc3)C(=O)O)ncnc21 (single isomer, unassigned) [Compound 4a, N-[6-Bromo-(5Sa)-5-(3-chloro-2-methylphenyl)-7-(prop-2-en-1-yl)-7H-pyrrolo[2,3-d]pyrimidin-4-yl]-D-phenylalanine]"
7,0.014,"COc1ccccc1C[C@@H](Oc1ncnc2sc(-c3ccc(F)cc3)c(-c3ccc(OCCN4CCN(C)CC4)c(Cl)c3C)c12)C(=O)O [Compound 13, (2R)-2-{[(5Sa)-5-{3-Chloro-2-methyl-4-[2-(4-methylpiperazin-1-yl)ethoxy]phenyl}-6-(4-fluorophenyl)thieno[2,3-d]pyrimidin-4-yl]oxy}-3-(2-methoxyphenyl)propanoic Acid]"
8,5.9,"CC#CCn1c(CC)c(-c2cccc(Cl)c2C)c2c(N[C@H](Cc3ccccc3)C(=O)O)ncnc21 (single isomer, unassigned) [Compound 7a, N-[7-(But-2-yn-1-yl)-(5Ra)-5-(3-chloro-2-methylphenyl)-6-ethyl-7H-pyrrolo[2,3-d]pyrimidin-4-yl]-D-phenylalanine]"

# Further lines, the compound ahead of its results:
row,SMILES,Ki [µM]
1,"Cc1c(Cl)cccc1-c1c2n(c3ncnc(N[C@H](Cc4ccccc4)C(=O)O)c13)CCCC2 (single isomer, unassigned) [Compound 12a, N-[(5Ra)-5-(3-Chloro-2-methylphenyl)-6,7,8,9-tetrahydropyrimido[5,4-b]indolizin-4-yl]-D-phenylalanine]",11
2,"C=CCn1c(CC)c(-c2cccc(Cl)c2C)c2c(N[C@H](Cc3ccccc3)C(=O)O)ncnc21 (single isomer, unassigned) [Compound 3a, N-[(5Ra)-5-(3-Chloro-2-methylphenyl)-6-ethyl-7-(prop-2-en-1-yl)-7H-pyrrolo[2,3-d]pyrimidin-4-yl]-D-phenylalanine]",18
3,"CC#CCn1c(CC)c(-c2cccc(Cl)c2C)c2c(N[C@H](Cc3ccccc3)C(=O)O)ncnc21 (single isomer, unassigned) [Compound 7b, N-[7-(But-2-yn-1-yl)-(5Sa)-5-(3-chloro-2-methylphenyl)-6-ethyl-7H-pyrrolo[2,3-d]pyrimidin-4-yl]-D-phenylalanine]",0.33
4,"CCc1c(-c2cccc(Cl)c2C)c2c(N[C@H](Cc3ccccc3)C(=O)O)ncnc2n1Cc1ccccc1 (single isomer, unassigned) [Compound 8b, N-[7-Benzyl-(5Sa)-5-(3-chloro-2-methylphenyl)-6-ethyl-7H-pyrrolo[2,3-d]pyrimidin-4-yl]-D-phenylalanine]",0.53
5,"CCc1c(-c2cccc(Cl)c2C)c2c(N[C@H](Cc3ccccc3)C(=O)O)ncnc2n1Cc1ccccc1 (single isomer, unassigned) [Compound 8a, N-[7-Benzyl-(5Ra)-5-(3-chloro-2-methylphenyl)-6-ethyl-7H-pyrrolo[2,3-d]pyrimidin-4-yl]-D-phenylalanine]",6.5
6,"CCc1c(-c2cccc(Cl)c2C)c2c(N[C@H](Cc3ccccc3)C(=O)O)ncnc2n1CCC1CCCC1 (single isomer, unassigned) [Compound 9b, N-[(5Sa)-5-(3-Chloro-2-methylphenyl)-7-(2-cyclopentylethyl)-6-ethyl-7H-pyrrolo[2,3-d]pyrimidin-4-yl]-D-phenylalanine]",0.79
7,"CCc1c(-c2cccc(Cl)c2C)c2c(N[C@H](Cc3ccccc3)C(=O)O)ncnc2n1CCC1CCCC1 (single isomer, unassigned) [Compound 9a, N-[(5Ra)-5-(3-Chloro-2-methylphenyl)-7-(2-cyclopentylethyl)-6-ethyl-7H-pyrrolo[2,3-d]pyrimidin-4-yl]-D-phenylalanine]",3.5

# Same assay, conditions: less active form compared to more active isomer 3b
row,SMILES,fold less potent (FP affinity) [fold]
1,"C=CCn1c(CC)c(-c2cccc(Cl)c2C)c2c(N[C@H](Cc3ccccc3)C(=O)O)ncnc21 (single isomer, unassigned) [Compound 3a, N-[(5Ra)-5-(3-Chloro-2-methylphenyl)-6-ethyl-7-(prop-2-en-1-yl)-7H-pyrrolo[2,3-d]pyrimidin-4-yl]-D-phenylalanine]",2

# Same assay, conditions: read-out: FP MCL-1 inhibition at 50 μM, @50 μM, highest tested dose
row,inhibition at 50 µM [%],SMILES
1,66,"C=CCn1c(Br)c(-c2cccc(Cl)c2C)c2c(N[C@H](Cc3ccccc3)C(=O)O)ncnc21 (single isomer, unassigned) [Compound 4b, N-[6-Bromo-(5Ra)-5-(3-chloro-2-methylphenyl)-7-(prop-2-en-1-yl)-7H-pyrrolo[2,3-d]pyrimidin-4-yl]-D-phenylalanine]"
2,63,"CCc1c(-c2cccc(Cl)c2C)c2c(N[C@H](Cc3ccccc3)C(=O)O)ncnc2n1CC(F)(F)F (single isomer, unassigned) [Compound 5a, N-[(5Ra)-5-(3-Chloro-2-methylphenyl)-6-ethyl-7-(2,2,2-trifluoroethyl)-7H-pyrrolo[2,3-d]pyrimidin-4-yl]-D-phenylalanine]"

# More lines, now with the values behind:
row,SMILES,inhibition at 50 µM [%]
1,"CCc1c(-c2cccc(Cl)c2C)c2c(N[C@H](Cc3ccccc3)C(=O)O)ncnc2n1C (single isomer, unassigned) [Compound 2a, N-[(5Ra)-5-(3-Chloro-2-methylphenyl)-6-ethyl-7-methyl-7H-pyrrolo[2,3-d]pyrimidin-4-yl]-D-phenylalanine]",65
2,"CCc1c(-c2cccc(Cl)c2C)c2c(N[C@H](Cc3ccccc3)C(=O)O)ncnc2n1C(C)C [Compound 6a, N-[(5Ra)-5-(3-Chloro-2-methylphenyl)-6-ethyl-7-(propan-2-yl)-7H-pyrrolo[2,3-d]pyrimidin-4-yl]-D-phenylalanine]",67

# Reference: paper PMC8412899 (ACS Omega, 2021)
